Measured values published in BindingDB's records for PubMed 3010074 (Warner-Lambert/Parke-Davis Pharmaceutical Research, 1986).

biological target: Adenosine receptor A2a (Homo sapiens, UniProt P29274)
Sequence (P29274 whole entry): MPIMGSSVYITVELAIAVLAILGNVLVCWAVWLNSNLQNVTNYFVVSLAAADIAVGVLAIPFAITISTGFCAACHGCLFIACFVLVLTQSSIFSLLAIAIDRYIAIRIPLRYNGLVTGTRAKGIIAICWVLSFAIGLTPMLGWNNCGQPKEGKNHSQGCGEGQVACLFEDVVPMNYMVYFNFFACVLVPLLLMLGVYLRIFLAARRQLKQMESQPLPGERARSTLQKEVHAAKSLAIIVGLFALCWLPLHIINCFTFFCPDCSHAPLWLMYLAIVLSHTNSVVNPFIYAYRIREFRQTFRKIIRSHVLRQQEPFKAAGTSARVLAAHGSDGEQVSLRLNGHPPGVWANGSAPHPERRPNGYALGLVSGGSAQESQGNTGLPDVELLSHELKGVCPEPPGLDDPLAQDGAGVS

Row | Compound | Ki
1 | O=c1nc2[nH]c3ccccc3nc-2c(=O)[nH]1 | 2.72 µM
2 | Cn1c(=O)c2[nH]c(-c3ccc(C(=O)O)cc3)nc2n(C)c1=O [8-(4-Carboxyphenyl)theophylline] | 7.26 µM
3 | Cn1c(=O)[nH]c2nc[nH]c2c1=O [1-Methyl-3,9-dihydro-purine-2,6-dione(1-methylxanthine)] | > 10 µM
4 | Cn1c(=O)c2[nH]c(-c3ccc([N+](=O)[O-])cc3)nc2n(C)c1=O [8-(4-Nitrophenyl)theophylline] | 2.52 µM
5 | CCn1c(=O)c2c(ncn2C)n(C)c1=O [NSC_93219] | > 10 µM
6 | CCCn1c(=O)c2[nH]c(-c3ccc(Cl)cc3N)nc2n(CCC)c1=O [NSC_92411] | 0.0919 µM
7 | Cn1c(=O)c2[nH]c(-c3ccc(Cl)cc3)nc2n(C)c1=O | 0.371 µM
8 | Cn1c(=O)c2nc(-c3ccccc3N)[nH]c2n(C)c1=O [8-(2-Aminophenyl)theophylline] | 1.43 µM
9 | Cn1c(=O)c2[nH]c(-c3ccc(S(=O)(=O)O)cc3)nc2n(C)c1=O [4-(1,3-Dimethyl-2,6-dioxo-2,3,6,7-tetrahydro-1H-purin-8-yl)-benzenesulfonic acid] | > 10 µM
10 | Cn1c(=O)c2[nH]c(-c3ccc(N)cc3)nc2n(C)c1=O | 0.391 µM
11 | CCCCn1c(=O)c2c(ncn2C)n(C)c1=O [NSC_70835] | > 10 µM
12 | CCn1c(=O)c2nc[nH]c2n(CC)c1=O [NSC_101420] | > 10 µM
13 | Cn1c(=O)c2c(ncn2CCCl)n(C)c1=O [7-(2-Chloroethyl)theophylline] | > 10 µM
14 | COc1ccc(-c2nc3c([nH]2)c(=O)n(C)c(=O)n3C)cc1 [8-(4-methoxyphenyl)-1,3-dimethyl-1H-purine-2,6(3H,7H)-dione] | 0.419 µM
15 | Cn1c(=O)c2nc(-c3cccs3)[nH]c2n(C)c1=O [CAS_267102] | 1.58 µM
16 | CCCc1nc2c([nH]1)c(=O)n(C)c(=O)n2C | > 10 µM
17 | CC(C)Cn1c(=O)n(C)c(=O)c2[nH]cnc21 [1-methyl-3-(2-methylpropyl)-2,3,6,7-tetrahydro-1H-purine-2,6-dione] | > 10 µM
18 | CCCCNc1c(C(=O)OCC)c(C)nc2c1cnn2CC [NSC_5522] | 1.56 µM
19 | CCCCNc1c(C(=O)OCC)cnc2c1cnn2CC [ethyl 4-(butylamino)-1-ethyl-1H-pyrazolo[3,4-b]pyridine-5-carboxylate] | 2.24 µM
20 | CCCn1c(=O)c2nc(-c3ccc(N)cc3N)[nH]c2n(CCC)c1=O | 0.214 µM

biological target: Adenosine receptor A2a (Rattus norvegicus, UniProt P30543)
Sequence (P30543 whole entry): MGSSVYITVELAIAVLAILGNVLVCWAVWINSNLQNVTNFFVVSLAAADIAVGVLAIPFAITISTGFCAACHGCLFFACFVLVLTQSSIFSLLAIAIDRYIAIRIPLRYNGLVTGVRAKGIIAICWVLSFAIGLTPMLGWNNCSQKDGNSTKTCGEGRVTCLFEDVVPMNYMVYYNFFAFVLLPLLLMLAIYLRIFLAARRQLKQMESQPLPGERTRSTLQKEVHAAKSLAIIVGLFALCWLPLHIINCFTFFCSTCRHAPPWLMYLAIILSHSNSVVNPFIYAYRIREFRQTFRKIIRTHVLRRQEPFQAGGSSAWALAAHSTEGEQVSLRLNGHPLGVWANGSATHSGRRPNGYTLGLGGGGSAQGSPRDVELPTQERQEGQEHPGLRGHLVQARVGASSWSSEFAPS

Row | Compound | Ki
21 | Nc1ncnc2c1ncn2[C@@H]1O[C@H](CO[N+](=O)[O-])[C@@H](O)[C@H]1O [5'-O-Nitroado] | 0.335 µM
22 | O=c1[nH]c2c(ncn2[C@@H]2O[C@H](CO)[C@@H](O)[C@H]2O)c2nccn12 [1,N6-Ehteno-2-oxoado] | > 10 µM
23 | Nc1ncnc2c1ncn2[C@@H]1O[C@H](NC(=O)C2CCCCC2)[C@@H](O)[C@H]1O [Ado-5'-cyclohexylcarboxamide] | 4.3 µM
24 | CNc1ncnc2c1ncn2[C@H]1C[C@H](O)[C@@H](CO)O1 [2'-Deoxy-N6-methylado] | > 10 µM
25 | NC(=O)CCOC[C@H]1O[C@@H](n2cnc3c(N)ncnc32)[C@H](O)[C@@H]1O [Ado-5'-(2-hydroxyethyl)carboxamide] | 0.0575 µM
26 | COc1ccc(-c2nc(N)c3ncn([C@@H]4O[C@H](CO)[C@@H](O)[C@H]4O)c3n2)cc1 [2-(4-Methoxyphenyl)ado (CV-1674)] | 0.605 µM
27 | NC(=O)OC[C@H]1O[C@@H](n2cnc3c(N)ncnc32)[C@H](O)[C@@H]1O [Ado-5'-carboxamide] | 0.12 µM
28 | Nc1nc(=O)[nH]c2c1ncn2[C@@H]1O[C@H](CO)[C@@H](O)[C@H]1O [CAS_1818-71-9] | 0.331 µM
29 | Nc1ncnc2c1ncn2[C@@H]1O[C@H](CNC(=O)C2CC2)[C@@H](O)[C@H]1O [Ado-5'-cyclopropylcarboxamide] | 0.0134 µM
30 | CC(=O)OCC1O[C@@H](n2cnc3c(N)ncnc32)[C@H](O)[C@@H]1O (some centres undefined) [5'-O-Acetylado] | 4.51 µM
31 | CCC(=O)OC[C@H]1O[C@@H](n2cnc3c(N)ncnc32)[C@H](O)[C@@H]1O [Ado-5'-ethylcarboxylate] | 0.387 µM
32 | Nc1nccc2c1SCN2[C@@H]1O[C@H](CO)[C@@H](O)[C@H]1O [7-Thia-9deazaado] | > 10 µM
33 | OC[C@H]1O[C@@H](n2cnc3c(NCc4ccccc4)ncnc32)[C@H](O)[C@@H]1O [N6-benzylado] | 0.285 µM
34 | Nc1nc(NC2CCCC2)nc2c1ncn2[C@@H]1O[C@H](CO)[C@@H](O)[C@H]1O | 0.462 µM
35 | Nc1ncnc2c1ncn2[C@@H]1O[C@H](CI)[C@@H](O)[C@H]1O [5'-Deoxy-5'-iodoado] | 0.637 µM
36 | Cn1c(N)c2ncn([C@@H]3O[C@H](CO)[C@@H](O)[C@H]3O)c2nc1=O [1-Methyl-2-oxoado] | 3.25 µM
37 | CSC[C@H]1O[C@@H](n2cnc3c(N)nc(Cl)nc32)[C@H](O)[C@@H]1O [2-Chloro-5'-methylthioado] | 1.88 µM
38 | CSC[C@H]1O[C@@H](n2cnc3c(N)ncnc32)[C@H](O)[C@@H]1O [(2R,3R,4S,5S)-2-(6-aminopurin-9-yl)-5-(methylsulfanylmethyl)oxolane-3,4-diol] | 1.1 µM
39 | Nc1nccc2c1ncn2[C@@H]1O[C@H](CO)[C@@H](O)[C@H]1O [CAS_6736-58-9] | > 10 µM
